Patent US6734168B2, “Endothelial monocyte activating polypeptide II: a mediator which activates host response” (The Trustees of Columbia University in the City of New York, priority 1993, dated 2004)

Test system: human MPs
Assay: [Ca2+]i measurement in MPs (fura-2)
Type: cell-based
Protocol: [Ca^2+1]i measurements. PMNs or MPs (2×10^7 cells in each case) were incubated with fura-2 AM (1 μM) and pluronic detergent (0.02%) for 12 min at room temperature, diluted sixfold, and incubated for a further 30 min at room temperature to allow for complete hydrolysis of the dye. Cells were then resuspended in HEPES-buffered saline at 5×10^5 cells/ml (32). For experiments using MPs, sulfinpyrazone (0.5 mM) was included at all steps to minimize both dye sequestration into intracellular organelles and dye efflux (33). Fluorescence of fura-2 was monitored at 37° C. in a thermostatically-controlled cuvette installed in a Perkin Elmer Model 650-40 fluorescense spectrophotometer. Calibration of [Ca^2+]i was performed as described (34).
For determination of [Ca^2+] in PMSs and MPs, cells (2×10^7 in each case) were incubated with fura-2 AM (1 um) and pluronci detergent (0.02%) at room temperature, diluted 6-fold, and incubated for a further 30 min at room temperature to allow for complete hydrolysis of the dye. Cells were then resuspended in HEPES-buffered saline at 5×10^5 cells/ml (32). For MPs, sulfinpyrazone (0.5 mM) was included at all steps to minimize both dye sequestration into intracellular organelles and dye efflux (33). Fluorescence of fura-2 was monitored at 37° C. in a thermostatically controlled cuvette installed in a Perkin Elmer model 650-40 fluorescence spectrophotometer. […]

ASRLDLRIGRIVTAKY [residues #6-20 from EMAP II, Cys to Arg substitution at position #15, and a C-terminal Tyr]
Rise in [Ca2+]i in MPs: results in elevation of [Ca^2+]i
